Test results: US10266535B2, “Inhibitor of FLT3 kinase and use thereof” (HEFEI INSTITUTES OF PHYSICAL SCIENCE, CHINESE ACADEMY OF …, priority 2015, dated 2019)

Key:
[1] = test system: TEL-BaF3-BLK (stably expressing BLK kinase); assay: Cell proliferation, Cell Titer-Glo, TEL-BaF3-BLK; assay type: cell-based; conditions: Mus musculus; incubated for 72 hours
In short: (§1)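 Viable cells quantified by CellTiter-Glo ATP luminescence; BaF3 lines generated in-house.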

[2] = test system: TEL-BaF3-BMX (stably expressing BMX kinase); assay: Cell proliferation, Cell Titer-Glo, TEL-BaF3-BMX; assay type: cell-based; conditions: Mus musculus; incubated for 72 hours
In short: as §1

[3] = test system: TEL-JAK1-BaF3 (stably expressing JAK1 kinase); assay: Cell proliferation, Cell Titer-Glo, TEL-JAK1-BaF3; assay type: cell-based; conditions: Mus musculus; incubated for 72 hours
Description: (§2) The above cell lines were constructed by our laboratory.
(§3) The number of viable cells was determined by quantification of ATP in living cells using the Cell Titer-Glo® (Promega, USA) chemiluminescence cell viability assay kit.

[4] = test system: TEL-BaF3-FLT3/ITD (stably expressing FLT3/ITD mutant activated kinase); assay: Cell proliferation, Cell Titer-Glo, TEL-BaF3-FLT3/ITD; assay type: cell-based, mouse; conditions: Mus musculus, 72 h, incubated for 72 hours; read-out: TEL-BaF3-FLT3/ITD IC50
In short: as §1

[5] = test system: TEL-BaF3-EGFR (stably expressing EGFR kinase); assay: Cell proliferation, Cell Titer-Glo, TEL-BaF3-EGFR; assay type: cell-based; conditions: Mus musculus; incubated for 72 hours
Description: as §2, §3

[6] = test system: TEL-BaF3-FLT3-D835Y (stably expressing FLT3 D835Y mutant activated kinase); assay: Cell proliferation, Cell Titer-Glo, TEL-BaF3-FLT3-D835Y; assay type: cell-based; conditions: Mus musculus; incubated for 72 hours; read-out: TEL-BaF3-FLT3-D835Y IC50
Description: as §2, §3

[7] = test system: TEL-cKIT-BaF3 (stably expressing cKIT kinase); assay: Cell proliferation, Cell Titer-Glo, TEL-cKIT-BaF3; assay type: cell-based; conditions: Mus musculus; incubated for 72 hours
Description: as §2, §3

[8] = test system: U937 (expressing wild-type FLT3 gene); assay: Cell proliferation, Cell Titer-Glo, U937; assay type: cell-based, human; conditions: Homo sapiens, U-937, 72 h, incubated for 72 hours; read-out: U937 IC50
In short: (§4)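 Read-out: luminescence from ATP in live cells (CellTiter-Glo), taken as viable cell number. Cell lines were built in-house.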

[9] = test system: BaF3-FLT3-ITD-D835Y (stably expressing FLT3/ITD D835Y mutant activated kinase); assay: Cell proliferation, Cell Titer-Glo, BaF3-FLT3-ITD-D835Y; assay type: cell-based; conditions: Mus musculus; incubated for 72 hours; read-out: BaF3-FLT3-ITD-D835Y IC50
Description: as §2, §3

[10] = test system: MOLM-14 (expressing FLT3/ITD mutant gene and wild-type FLT3 gene); assay: Cell proliferation, Cell Titer-Glo, MOLM-14; assay type: cell-based; conditions: Homo sapiens, MOLM-14; incubated for 72 hours; read-out: MOLM-14 IC50
Description: as §2, §3

[11] = test system: TPR-MET-BaF3 (stably expressing MET kinase); assay: Cell proliferation, Cell Titer-Glo, TPR-MET-BaF3; assay type: cell-based; conditions: Mus musculus; incubated for 72 hours
Description: as §2, §3

[12] = molecular target: BTK protein kinase (Homo sapiens (Human), UniProt Q06187); assay: In vitro inhibition activity (enzymatic activity), ADP-Glo, BTK; assay type: biochemical; conditions: ATP 10 μM
[13] = test system: BaF3-FLT3-ITD-F691L (stably expressing FLT3/ITD F691L mutant activated kinase); assay: Cell proliferation, Cell Titer-Glo, BaF3-FLT3-ITD-F691L; assay type: cell-based; conditions: Mus musculus; incubated for 72 hours; read-out: BaF3-FLT3-ITD-F691L IC50
Description: as §2, §3

[14] = test system: MV4-11 (expressing FLT3/ITD mutant gene); assay: Cell proliferation, Cell Titer-Glo, MV4-11; assay type: cell-based; conditions: Homo sapiens, MV4-11; incubated for 72 hours; read-out: MV4-11 IC50
In short: as §4

[15] = test system: pro-B cell BaF3; assay: Cell proliferation, Cell Titer-Glo, BaF3; assay type: cell-based; conditions: Mus musculus, incubated for 72 hours
In short: as §1

[16] = test system: MOLM-13 (expressing FLT3/ITD mutant gene and wild-type FLT3 gene); assay: Cell proliferation, Cell Titer-Glo, MOLM-13; assay type: cell-based; conditions: Homo sapiens, MOLM-13; incubated for 72 hours; read-out: MOLM-13 IC50
In short: as §4

Chain of BTK protein kinase (Q06187 whole entry): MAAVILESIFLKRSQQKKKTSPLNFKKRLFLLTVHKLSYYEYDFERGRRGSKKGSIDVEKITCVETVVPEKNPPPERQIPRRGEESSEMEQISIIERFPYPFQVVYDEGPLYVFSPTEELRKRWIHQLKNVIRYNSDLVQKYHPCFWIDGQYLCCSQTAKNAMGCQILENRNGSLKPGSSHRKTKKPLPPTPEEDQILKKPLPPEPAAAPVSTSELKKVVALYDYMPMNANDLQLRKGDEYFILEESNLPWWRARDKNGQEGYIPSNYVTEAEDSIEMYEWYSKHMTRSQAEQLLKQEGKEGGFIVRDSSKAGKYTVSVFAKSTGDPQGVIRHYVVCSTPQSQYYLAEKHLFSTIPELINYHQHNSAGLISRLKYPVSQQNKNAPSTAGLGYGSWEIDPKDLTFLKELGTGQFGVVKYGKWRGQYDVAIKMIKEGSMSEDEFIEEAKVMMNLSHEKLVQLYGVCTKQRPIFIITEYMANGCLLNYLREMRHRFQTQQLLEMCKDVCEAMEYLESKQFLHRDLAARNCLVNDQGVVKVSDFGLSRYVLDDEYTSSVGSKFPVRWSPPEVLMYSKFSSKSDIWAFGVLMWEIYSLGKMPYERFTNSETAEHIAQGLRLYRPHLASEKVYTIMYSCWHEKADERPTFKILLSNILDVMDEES

Compound | IC50 [1] [nM] | IC50 [2] [nM] | IC50 [3] [nM] | IC50 [4] [nM] | IC50 [5] [nM] | IC50 [6] [nM] | IC50 [7] [nM] | IC50 [8] [nM] | IC50 [9] [nM] | IC50 [10] [nM] | IC50 [11] [nM] | IC50 [12] [nM] | IC50 [13] [nM] | IC50 [14] [nM] | IC50 [15] [nM] | IC50 [16] [nM]
NC(=O)C(=O)N1CCC[C@@H](n2nc(-c3ccc(Oc4ccccc4)cc3)c3c(N)ncnc32)C1 [Compound 5, (R)-2-(3-(4-amino-(4-phenoxyphenyl)-1H-pyrazolo[3,4-d]pyrimidin-1-yl)piperidin-1-yl)-2-oxamide] | 970 | 200 | 4000 | 510 | > 10000 | 34 | 2200 | 6400 | 320 | 210 | 5700 | 40 | 370 | 120 | > 10000 | 85
Nc1ncnc2c1c(-c1ccc(Oc3ccccc3)cc1)nn2[C@@H]1CCCN(C(=O)[C@H](N)Cc2c[nH]cn2)C1 [Compound 7, (R)-2-amino-1-((R)-3-(4-amino-(4-phenoxyphenyl)-1H-pyrazolo[3,4-d]pyrimidin-1-yl)piperidin-1-yl)-3-(1H-imidazol-4-yl)propan-1-one] | 51 | 330 | 370 | 9 | 1000 | 300 | 350 | 540 | 110 | 23 | 530 | 27 | 250 | 10 | 440 | 1.2
Nc1ncnc2c1c(-c1ccc(Oc3ccccc3)cc1)nn2[C@@H]1CCCN(C(=O)[C@@H](N)Cc2ccc(O)cc2)C1 [Compound 11, (S)-2-amino-1-((R)-3-(4-amino-(4-phenoxyphenyl)-1H-pyrazolo[3,4-d]pyrimidin-1-yl)piperidin-1-yl)-3-(4-hydroxyphenyl)propan-1-one] | 90 | 440 | 340 | 48 | 2200 | 20 | 830 | 3400 | 280 | 46 | 1400 | – | 260 | 22 | 960 | 12
Nc1ncnc2c1c(-c1ccc(Oc3ccccc3)cc1)nn2[C@@H]1CCCN(C(=O)N2CCNCC2)C1 [Compound 14, (R)-(3-(4-amino-(4-phenoxyphenyl)-1H-pyrazolo[3,4-d]pyrimidin-1-yl)piperidin-1-yl)(piperazin-1-yl)methanone] | 1000 | 430 | 7700 | 88 | 1600 | 240 | 4900 | 4140 | 250 | 120 | 3000 | 63 | 370 | 49 | 9800 | 60
Nc1ncnc2c1c(-c1ccc(Oc3ccccc3)cc1)nn2[C@@H]1CCCN(C(=O)[C@H](N)Cc2ccccc2)C1 [Compound 26, (R)-2-amino-1-((R)-3-(4-amino-(4-phenoxyphenyl)-1H-pyrazolo[3,4-d]pyrimidin-1-yl)piperidin-1-yl)-3-phenylpropan-1-one] | 2900 | 1300 | 2000 | 160 | 1300 | 360 | 3500 | 2400 | – | 290 | 2000 | 98 | – | 280 | 1500 | 200
